# Measurements published in ChEMBL document CHEMBL1201862, “PubChem BioAssay data set” (2004).
#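 These data come from cells grown in 96-well plates and exposed to compound for 48 hours at five concentrations. GI50 marks 50% less growth.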 The source made the active and inactive calls. Rule as the data show it: active = GI50 up to about 1.1 µM and inactive = higher.
# Legend:
# Assay in all cases: NCI tumour cell line growth inhibition, 48 h
# A549 = tested on: A549
# HCT-116 = tested on: HCT-116
# HCT-15 = tested on: HCT-15
# HOP-62 = tested on: HOP-62
# LOX IMVI = tested on: LOX IMVI
# MDA-MB-231 = tested on: MDA-MB-231
# Malme-3M = tested on: Malme-3M
# NCI-H226 = tested on: NCI-H226
# NCI-H460 = tested on: NCI-H460
# OVCAR-3 = tested on: OVCAR-3
# PC-3 = tested on: PC-3
# RPMI-8226 = tested on: RPMI-8226
# SF-268 = tested on: SF-268
# SK-MEL-28 = tested on: SK-MEL-28
# SK-MEL-2 = tested on: SK-MEL-2
# SK-MEL-5 = tested on: SK-MEL-5
# SNB-19 = tested on: SNB-19
# SW-620 = tested on: SW-620
# TK-10 = tested on: TK-10
# U-251 = tested on: U-251
SMILES,GI50 (A549),GI50 (HCT-116),GI50 (HCT-15),GI50 (HOP-62),GI50 (LOX IMVI),GI50 (MDA-MB-231),GI50 (Malme-3M),GI50 (NCI-H226),GI50 (NCI-H460),GI50 (OVCAR-3),GI50 (PC-3),GI50 (RPMI-8226),GI50 (SF-268),GI50 (SK-MEL-28),GI50 (SK-MEL-2),GI50 (SK-MEL-5),GI50 (SNB-19),GI50 (SW-620),GI50 (TK-10),GI50 (U-251)
CC1(C)O[C@@H](CBr)C[C@H](C[C@H]2C[C@@H](O)C[C@@H](CCOCc3ccccc3)O2)O1,23.9 µM (inactive),21.3 µM (inactive),24.2 µM,20.1 µM (inactive),26.2 µM (inactive),40.3 µM (inactive),17.3 µM (inactive),17.5 µM (inactive),29.9 µM (inactive),19.4 µM (inactive),20.1 µM (inactive),27.5 µM (inactive),22 µM (inactive),25.2 µM (inactive),16.4 µM (inactive),30.3 µM (inactive),25.5 µM (inactive),31.6 µM (inactive),20.4 µM (inactive),31.8 µM (inactive)
CC(=O)Nc1cc(C(=O)Nc2cc(C(=O)Nc3cc(C(=O)Nc4cc(C(=O)Nc5cc(C(=O)NCCC(=O)NCCCN(C)C)n(C)c5)n(C)c4)n(C)c3)n(C)c2)n(C)c1,> 100 µM (inactive),37.3 µM (inactive),> 100 µM,> 100 µM (inactive),37.4 µM (inactive),> 100 µM (inactive),27.5 µM (inactive),> 100 µM (inactive),> 100 µM (inactive),> 100 µM (inactive),> 100 µM (inactive),> 100 µM (inactive),71.3 µM (inactive),67.6 µM (inactive),> 100 µM (inactive),> 100 µM (inactive),> 100 µM (inactive),69.5 µM (inactive),> 100 µM (inactive),67.9 µM (inactive)
CCN(CC)CCOc1ccc(N2Cc3cc(OC)c(OC)cc3C2=O)cc1,> 100 µM (inactive),> 100 µM (inactive),> 100 µM,> 100 µM (inactive),> 100 µM (inactive),> 100 µM (inactive),> 100 µM (inactive),> 100 µM (inactive),> 100 µM (inactive),> 100 µM (inactive),> 100 µM (inactive),> 100 µM (inactive),> 100 µM (inactive),> 100 µM (inactive),> 100 µM (inactive),> 100 µM (inactive),> 100 µM (inactive),> 100 µM (inactive),> 100 µM (inactive),> 100 µM (inactive)
Cc1ccc(/N=N/c2ccc(O)c(CN(C)C)c2)cc1,20.3 µM (inactive),22.5 µM (inactive),20.6 µM,12.6 µM (inactive),14 µM (inactive),20.6 µM (inactive),16.7 µM (inactive),20.9 µM (inactive),16.5 µM (inactive),15.7 µM (inactive),19.4 µM (inactive),17.8 µM (inactive),20.2 µM (inactive),20 µM (inactive),15.2 µM (inactive),14.5 µM (inactive),36.6 µM (inactive),20.7 µM (inactive),21.7 µM (inactive),32.1 µM (inactive)
O=C1CCN2c3ccccc3[C@H]3Cc4cccc(c4[C@@H]2C3)CCO1,33.9 µM (inactive),21.6 µM (inactive),26.9 µM,56.2 µM (inactive),34.6 µM (inactive),83 µM (inactive),25.2 µM (inactive),32.9 µM (inactive),> 100 µM (inactive),26.5 µM (inactive),32 µM (inactive),31 µM (inactive),72.4 µM (inactive),56.4 µM (inactive),38 µM (inactive),22.1 µM (inactive),86.9 µM (inactive),35.3 µM (inactive),65.6 µM (inactive),40.5 µM (inactive)
